{
  "source": "patent US20230292780A1",
  "about": "“LISTERIA INHIBITION BY MANGANESE DEPLETION” (Chr. Hansen A/S, priority 2020, published 2023)",
  "key": {"[1]": {"test_system": "four Listeria spp. strains (L. monocytogenes DSM 15675, mhl210, ATCC 13932; L. innocua BL 86/26)", "conditions": "for growth (absorbance at 600 nm): 30° C.", "method": "(§1) All the components were dissolved in 700 mL Milli-Q water to minimize traces of manganese, and the pH was set to 6.8 with KOH, after which the volume was adjusted to 1 L and filter-sterilized.\n(§2) The following strains were tested: • 1. L. monocytogenes 1: DSM 15675 (obtainable from DSMZ) • 2. L. monocytogenes 2: mhl210 (obtainable from the Copenhagen University from Department of Veterinary and Animal Sciences, Section for Food Safety and Zoonoses) • 3. L. monocytogenes 3: ATCC 13932 (obtainable from ATCC) • 4. L. innocua BL 86/26 • 5. L. lactis subsp. cremoris MG1363 (MoBiTec GmbH, Germany)\n(§3) L. innocua BL 86/26 and L. lactis MG1363 were pre-grown from -80° C. glycerol stocks in M17 broth with 1% (w/v) glucose. The three L. monocytogenes were pre-grown from −80° C. glycerol stocks in BHI. All cultures were incubated overnight as standing cultures at 30° C., resulting in stationary phase cultures. The next day, 1 mL of each culture was washed twice with and resuspended in manganese-deficient CDM to remove residual manganese. 1 μL of each washed culture was then used to inoculate, in triplicate, a well of a 96-wells plate containing 200 μL CDM supplemented with 1% glucose diluted from a 50% (w/v) stock solution dissolved in demineralized water, in which manganese was left out, or added to a final concentration of 0.00006, 0.0006, 0.006, 0.06 or 0.6 mg L^−1 manganese. Growth was followed by monitoring the absorbance at 600 nm at 30° C. in a Synergi H1 reader (BioTek, Winooski, VT, USA). This experiment was repeated twice on separate days to check reproducibility."}, "[2]": {"test_system": "L. lactis subsp. cremoris MG1363", "conditions": "same CDM", "method": "as §1, §2, §3"}, "[3]": {"test_system": "L. lactis single strain isolated from Fresco 1000NG-10", "conditions": "CDM, 0 to 0.6 ppm manganese, 30° C.", "method": "(§4) CDM for growth of Lactococcus lactis and Listeria innocua was prepared as described in Example 1. As to Streptococcus thermophilus, a second Mn-free CDM supporting it growth was prepared essentially as described by Otto et al. (“The relation between growth rate and electrochemical proton gradient of Streptococcus cremoris.” FEMS Microbiology Letters 16.1 (1983): 69-74) with the following exceptions: All metals were used in the same final concentrations as listed in Table 4, and all amino acids were added to a final concentration of 0.08 g/L except for cysteine, which consisted of a final concentration of 0.5 g/L. Wolfe's vitamin solution was used in which DL-Ca-pantothenate was increased to have a final concentration of 400 mg/L, and urea and NaHCO3 were added to a final concentration of 0.12 and 0.42 g, respectively.\n(§5) The following strains were tested: • 1. L. lactis single strain isolated from Fresco 1000NG-10 (Chr. Hansen A/S, Denmark) • 2. S. thermophilus single strain isolated from Fresco 1000NG-10 (Chr. Hansen A/S, Denmark) • 3. L. innocua BL 86/26\n(§6) All strains were pre-grown to stationary phase cultures from −80° C. glycerol stocks in M17 broth with 1% (w/v) glucose, as standing cultures at 30° C. 1 mL of each culture was then washed twice with and resuspended in manganese-deficient CDM to remove residual manganese. 1 μL of each washed culture was then used to inoculate, in triplicate, a well of a 96-wells plate containing 200 μL CDM supplemented with 1% (w/v) glucose diluted from a 50% (w/v) stock solution dissolved in Milli-Q water, and in which manganese was left out, or added to a final concentration of 0.00006, 0.0006, 0.006, 0.06 or 0.6 mg L-1 manganese. Growth was followed by monitoring the absorbance at 600 nm at 30° C. in a Synergi H1 reader (BioTek, Winooski, VT, USA)."}, "[4]": {"test_system": "S. thermophilus single strain isolated from Fresco 1000NG-10", "conditions": "second Mn-free CDM, 0 to 0.6 ppm manganese, 30° C.", "method": "as §4, §5, §6"}, "[5]": {"test_system": "L. innocua BL 86/26", "conditions": "CDM, 30° C.", "method": "as §4, §5, §6"}},
  "note": "Read-outs that look alike come from different tables or passages of the source.",
  "data": [
    {"compound": "[Mn+2]", "note": "[manganese]", "values": [
      {"measurement": "growth (absorbance at 600 nm)", "setting": "[1]; 0.0006 ppm manganese added to CDM", "result": "severely hampered"},
      {"measurement": "growth (absorbance at 600 nm)", "setting": "[1]; 0.006 ppm manganese added to CDM", "result": "some growth defects"},
      {"measurement": "growth (absorbance at 600 nm)", "setting": "[1]; 0.06 ppm manganese added to CDM", "result": "no growth defect"},
      {"measurement": "growth (absorbance at 600 nm)", "setting": "[1]; 0.6 ppm manganese added to CDM", "result": "no growth defect"},
      {"measurement": "manganese concentration below which inhibition of Listeria can be seen", "setting": "[1]; CDM", "result": "below 0.006 ppm"},
      {"measurement": "manganese concentration that restored the growth of Listeria", "setting": "[1]; CDM", "result": "above 0.006 ppm"},
      {"measurement": "time the inhibitory effect due to low manganese levels is maintained", "setting": "[1]; low manganese levels in CDM", "result": "at least 20 hours"},
      {"measurement": "growth on depletion of manganese", "setting": "[2]", "result": "hardly inhibited"},
      {"measurement": "growth on depletion of manganese", "setting": "[3]", "result": "minimally inhibited"},
      {"measurement": "growth on depletion of manganese", "setting": "[4]", "result": "minimally inhibited"},
      {"measurement": "manganese required for growth to occur", "setting": "[5]", "result": "more than 0.0006 ppm"}
    ]}
  ]
}
